Results: patent publication US20120172340A1, “Compositions and Methods for Selectively Activating Human Sirtuins” (BIOMOL International L.P., priority 2004, published 2012)
“Also recorded” adds a separate entry of the source.

What was measured:
human SIRT1 = biological target: T1, human SIRT1 (Homo sapiens, UniProt Q96EB6); test: SIRT1 rate measurement, fluorogenic p53-382 peptide deacetylation; format: biochemical; settings: 100 μM test compounds; 25 μM NAD+, 25 μM p53-382 peptide
T1 construct: made in house; host or cells: E. coli
T1 sequence (Q96EB6 1-747): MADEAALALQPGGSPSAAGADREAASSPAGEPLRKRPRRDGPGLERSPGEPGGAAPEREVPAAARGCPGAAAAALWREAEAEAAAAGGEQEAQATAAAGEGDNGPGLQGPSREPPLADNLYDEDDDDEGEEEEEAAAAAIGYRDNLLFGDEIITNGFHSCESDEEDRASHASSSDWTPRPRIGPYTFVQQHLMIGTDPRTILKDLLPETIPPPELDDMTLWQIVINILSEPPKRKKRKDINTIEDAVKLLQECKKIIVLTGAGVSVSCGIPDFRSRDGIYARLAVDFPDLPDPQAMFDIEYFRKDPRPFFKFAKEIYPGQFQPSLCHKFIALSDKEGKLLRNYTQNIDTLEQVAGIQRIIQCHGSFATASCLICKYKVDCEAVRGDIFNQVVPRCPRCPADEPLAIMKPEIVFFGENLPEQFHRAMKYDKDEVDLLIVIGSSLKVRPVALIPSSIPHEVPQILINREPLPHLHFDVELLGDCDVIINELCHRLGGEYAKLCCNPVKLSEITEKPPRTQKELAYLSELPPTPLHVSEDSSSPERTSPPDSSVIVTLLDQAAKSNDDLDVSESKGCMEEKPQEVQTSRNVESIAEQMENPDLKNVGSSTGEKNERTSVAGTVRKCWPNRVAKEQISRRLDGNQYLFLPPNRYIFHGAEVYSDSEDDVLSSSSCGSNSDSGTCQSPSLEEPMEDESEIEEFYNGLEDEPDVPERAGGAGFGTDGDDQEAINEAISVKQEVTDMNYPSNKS

human SIRT5 = biological target: T2, human SIRT5 (Homo sapiens, UniProt Q9NXA8); test: SIRT5 rate measurement, fluorogenic p53-382 peptide deacetylation; format: biochemical; set-up: His6 (histidine tag, 2.5 kDa) (N); made in house; host or cells: E. coli; settings: for relative activation of SIRT5 versus SIRT1 (in words): comparison of Table 2 SIRT5 and SIRT1 data
T2 sequence (Q9NXA8 37-310): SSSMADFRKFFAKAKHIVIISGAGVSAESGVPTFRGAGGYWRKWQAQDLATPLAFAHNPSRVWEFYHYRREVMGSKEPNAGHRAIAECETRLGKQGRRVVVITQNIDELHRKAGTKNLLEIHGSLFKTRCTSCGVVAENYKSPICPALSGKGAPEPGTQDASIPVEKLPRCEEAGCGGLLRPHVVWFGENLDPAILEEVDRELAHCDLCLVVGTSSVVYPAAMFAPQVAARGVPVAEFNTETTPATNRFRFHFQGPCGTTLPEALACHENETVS

[1] = 200 μM test compounds, 500 μM NAD+, 100 μM p53-382 peptide

Row | Structure (SMILES) | SIRT1 Ratio to Control Rates Mean ± SE Compounds at 100 μM (human SIRT1) | identified as human SIRT5 inhibitor (human SIRT5) | SIRT5 Ratio of Control Rates Mean ± SE Compounds at 200 μM (human SIRT5; [1]) | maximum stimulation observed for SIRT5, increase in activity (human SIRT5; [1]) | maximum stimulation observed for SIRT1, increase in activity (human SIRT1) | relative activation of SIRT5 versus SIRT1 (in words) (human SIRT5)
1 | Cc1ccc(NC(=O)c2cccc(N(C)C)c2)cc1NC(=O)c1ccc(O)cc1 [ZM 336372, N-[5-(3-dimethylaminobenzamido)-2-methylphenyl]-4-hydroxybenzamide] | 3.5 ± 1.1 | SIRT5 inhibitors | 0.74 ± 0.05 | – | – | selective activators of SIRT1 as compared to SIRT5
2 | Oc1cc(O)cc(/C=C/c2ccc(O)c(O)c2)c1 [Piceatannol, 3,5,3′,4′-Tetrahydroxy-trans-stilbene] | 7.90 ± 0.50 | – | 3.23 ± 0.21 | – | – | relatively more potent at activating SIRT1 than SIRT5
3 | O=C(/C=C/c1ccc(O)c(O)c1)c1ccc(O)cc1O [Butein, 3,4,2′,4′-Tetrahydroxychalcone] | 8.53 ± 0.89 | – | 2.19 ± 0.10 | – | – | selective activators of SIRT1 as compared to SIRT5; also recorded: relatively less potent SIRT5 activation
4 | O=c1c(O)c(-c2ccc(O)c(O)c2)oc2cc(O)cc(O)c12 [Quercetin, 3,5,7,3′,4′-Pentahydroxyflavone] | 4.59 ± 0.47 | – | 2.18 ± 0.10 | – | – | relatively less potent SIRT5 activation
5 | COc1cc(O)cc(/C=C/c2ccc(NC(C)=O)cc2)c1 [BML-223, 3-methoxy-5-hydroxy-4′-acetamido-trans-stilbene] | – | – | 3.10 ± 0.016 | – | – | –
6 | O=c1c(O)c(-c2ccc(O)c(O)c2)oc2cc(O)ccc12 [Fisetin, 3,7,3′,4′-Tetrahydroxyflavone] | 6.58 ± 0.69 | – | 2.61 ± 0.19 | – | – | relatively less potent SIRT5 activation
7 | Oc1cc(O)cc(/C=C/C2CCCCC2)c1 [BML-224, (E)-1-(3,5-Dihydroxyphenyl)-2-(cyclohexyl)ethene] | 1.30 ± 0.04 | – | 1.40 ± 0.23 | – | – | –
8 | Oc1cccc(/C=C/c2ccccc2)c1 [3-Hydroxy-trans-stilbene] | 2.36 ± 0.07 | SIRT5 inhibitors | 0.79 ± 0.06 | – | – | –
9 | CC(=O)Oc1cc(O)cc(/C=C/c2ccc(O)cc2)c1 [BML-227, 3,4′-Dihydroxy-5-acetoxy-trans-stilbene] | 2.69 ± 0.08 | – | 2.09 ± 0.25 | – | – | –
10 | CC(=O)Oc1ccc(/C=C/c2cc(O)cc(O)c2)cc1 [BML-221, 3,5-Dihydroxy-4′-acetoxy-trans-stilbene] | 3.05 ± 0.54 | – | 2.89 ± 0.15 | – | – | –
11 | COc1ccc(/C=C/c2ccccc2)cc1 [4-Methoxy-trans-stilbene] | 0.84 ± 0.09 | SIRT5 inhibitors | 0.79 ± 0.20 | – | – | –
12 | CC(Cc1ccc(O)c(O)c1)C(C)Cc1ccc(O)c(O)c1 (stereo not drawn) [NDGA, Nordihydroguaiaretic acid] | 1.738 ± 0.088 | – | 1.91 ± 0.02 | – | – | –
13 | Oc1ccc(/C=C/c2ccccc2)cc1O [3,4-Dihydroxy-trans-stilbene] | 1.64 ± 0.10 | SIRT5 inhibitors | 0.58 ± 0.25 | – | – | –

The next lines start with results.

Row | SIRT1 Ratio to Control Rates Mean ± SE Compounds at 100 μM (human SIRT1) | identified as human SIRT5 inhibitor (human SIRT5) | SIRT5 Ratio of Control Rates Mean ± SE Compounds at 200 μM (human SIRT5; [1]) | maximum stimulation observed for SIRT5, increase in activity (human SIRT5; [1]) | maximum stimulation observed for SIRT1, increase in activity (human SIRT1) | Structure (SMILES) | relative activation of SIRT5 versus SIRT1 (in words) (human SIRT5)
14 | 10.6 ± 0.4 | – | 13.6 ± 0.4 | 13.6 fold | – | Oc1cc(O)cc(/C=C/c2ccc(Cl)cc2)c1 [BML-217, 3,5-Dihydroxy-4′-chloro-trans-stilbene] | potent activator of SIRT5 and SIRT1
15 | 6.84 ± 1.26 | – | 4.60 ± 0.17 | – | – | CSc1ccc(/C=C/c2cc(O)cc(O)c2)cc1 [BML-230, 3,5-Dihydroxy-4′-thiomethyl-trans-stilbene] | –
16 | 6.01 ± 0.15 | – | 8.41 ± 0.22 | – | – | CC(C)c1ccc(/C=C/c2cc(O)cc(O)c2)cc1 [BML-231, 3,5-Dihydroxy-4′-isopropyl-trans-stilbene] | –
17 | 3.05 ± 0.37 | – | 2.47 ± 0.22 | – | – | Oc1cc(O)cc(/C=C/c2ccc3ccccc3c2)c1 [BML-218, (E)-1-(3,5-Dihydroxyphenyl)-2-(2-napthyl)ethene] | –
18 | 9.373 ± 0.014 | – | 8.41 ± 0.36 | – | – | CCc1ccc(/C=C/c2cc(O)cc(O)c2)cc1 [BML-225, 3,5-Dihydroxy-4′-ethyl-trans-stilbene] | –
19 | 12.6 ± 0.4 | – | 2.12 ± 0.34 | – | 12.6 fold | CCSc1ccc(/C=C/c2cc(O)cc(O)c2)cc1 [BML-243, 3,5-Dihydroxy-4′-thioethyl-trans-stilbene] | selective activators of SIRT1 as compared to SIRT5; also recorded: relatively less potent SIRT5 activators
20 | 1.36 ± 0.10 | – | 2.09 ± 0.25 | – | – | O=C(O)c1ccc(/C=C/c2cc(O)cc(O)c2)cc1 [BML-238, 3,5-Dihydroxy-4′-carboxy-trans-stilbene] | –
21 | 1.88 ± 0.11 | – | 2.26 ± 0.17 | – | – | CC(=O)Nc1ccc(/C=C/c2cc(O)cc(O)c2)cc1 [BML-222, 3,5-Dihydroxy-4′-acetamide-trans-stilbene] | –
22 | 1.26 ± 0.12 | – | 2.49 ± 0.29 | – | – | Oc1cc(O)cc(/C=C/c2ccncc2)c1 [BML-236, (E)-1-(3,5-Dihydroxyphenyl)-2-(4-pyridyl)ethene] | –
23 | 6.78 ± 0.22 | – | 3.43 ± 0.10 | – | – | O=[N+]([O-])c1ccc(/C=C/c2cc(O)cc(O)c2)cc1 [BML-229, 3,5-Dihydroxy-4′-nitro-trans-stilbene] | –
24 | 2.74 ± 0.37 | – | 4.50 ± 0.28 | – | – | COC(=O)c1ccc(/C=C/c2cc(O)cc(O)c2)cc1 [BML-237, 3,5-Dihydroxy-4′-carbomethoxy-trans-stilbene] | selective activators of SIRT5 as compared to SIRT1
25 | 7.72 ± 0.12 | – | 8.12 ± 0.31 | – | – | Cc1ccc(/C=C/c2cc(O)cc(O)c2)cc1 [BML-228, 3,5-Dihydroxy-4′-methyl-trans-stilbene] | –
26 | 9.95 ± 0.45 | – | 2.71 ± 0.092 | – | – | Oc1cc(O)cc(/C=C/c2ccccc2)c1 [Pinosylvin, 3,5-Dihydroxy-trans-stilbene] | relatively more potent at activating SIRT1 than SIRT5
